Key:
human mGlu5 receptor [1] = target: T1, human mGlu5 receptor (Homo sapiens, UniProt P41594); assay: IP-One accumulation in transfected HEK293 cells; format: cell-based; design: gene GRM5; full-length wild-type (SNAP-tagged)
Target sequence in this assay (P41594 21-1212): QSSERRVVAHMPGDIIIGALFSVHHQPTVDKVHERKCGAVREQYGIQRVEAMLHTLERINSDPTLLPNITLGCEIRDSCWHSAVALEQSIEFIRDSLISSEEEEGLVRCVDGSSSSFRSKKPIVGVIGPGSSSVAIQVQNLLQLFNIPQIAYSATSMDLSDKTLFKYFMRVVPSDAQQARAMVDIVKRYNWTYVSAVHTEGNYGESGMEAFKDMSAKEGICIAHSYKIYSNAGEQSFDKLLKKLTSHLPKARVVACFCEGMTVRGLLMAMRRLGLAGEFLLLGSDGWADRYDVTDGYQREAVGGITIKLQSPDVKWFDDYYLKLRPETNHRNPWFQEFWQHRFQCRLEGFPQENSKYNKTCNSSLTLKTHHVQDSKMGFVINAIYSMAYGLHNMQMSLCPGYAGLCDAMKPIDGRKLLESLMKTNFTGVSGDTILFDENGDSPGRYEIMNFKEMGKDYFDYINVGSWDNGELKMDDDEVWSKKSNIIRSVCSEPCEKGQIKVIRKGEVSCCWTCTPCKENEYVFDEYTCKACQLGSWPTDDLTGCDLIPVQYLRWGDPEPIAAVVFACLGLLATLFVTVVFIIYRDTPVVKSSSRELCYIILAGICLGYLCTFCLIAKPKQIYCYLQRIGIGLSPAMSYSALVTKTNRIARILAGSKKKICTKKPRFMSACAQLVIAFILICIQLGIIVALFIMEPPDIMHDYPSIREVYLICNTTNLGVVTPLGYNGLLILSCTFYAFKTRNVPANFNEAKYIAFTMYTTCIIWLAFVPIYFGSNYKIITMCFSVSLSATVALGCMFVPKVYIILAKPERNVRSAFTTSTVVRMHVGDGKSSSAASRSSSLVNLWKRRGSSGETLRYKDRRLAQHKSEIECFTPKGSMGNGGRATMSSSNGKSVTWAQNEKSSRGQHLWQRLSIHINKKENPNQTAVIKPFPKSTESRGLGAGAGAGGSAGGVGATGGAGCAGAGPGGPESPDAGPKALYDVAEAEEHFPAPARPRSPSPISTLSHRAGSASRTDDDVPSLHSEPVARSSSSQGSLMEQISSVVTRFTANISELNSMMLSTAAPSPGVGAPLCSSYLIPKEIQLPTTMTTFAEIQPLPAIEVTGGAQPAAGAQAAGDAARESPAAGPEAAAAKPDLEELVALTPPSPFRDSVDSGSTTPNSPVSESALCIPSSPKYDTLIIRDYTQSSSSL

human mGlu5 receptor [2] = target: T1, human mGlu5 receptor; assay: Bodipy-FL GTPγS activation of purified Gq/Gs by purified receptor ([…] ligand); pEC50 from IP-One assay in HEK293 cells; format: biochemical; design: gene GRM5; mGlu5-Δ856 (C-terminus truncated after Ala856)
Target sequence in this assay (P41594 21-856): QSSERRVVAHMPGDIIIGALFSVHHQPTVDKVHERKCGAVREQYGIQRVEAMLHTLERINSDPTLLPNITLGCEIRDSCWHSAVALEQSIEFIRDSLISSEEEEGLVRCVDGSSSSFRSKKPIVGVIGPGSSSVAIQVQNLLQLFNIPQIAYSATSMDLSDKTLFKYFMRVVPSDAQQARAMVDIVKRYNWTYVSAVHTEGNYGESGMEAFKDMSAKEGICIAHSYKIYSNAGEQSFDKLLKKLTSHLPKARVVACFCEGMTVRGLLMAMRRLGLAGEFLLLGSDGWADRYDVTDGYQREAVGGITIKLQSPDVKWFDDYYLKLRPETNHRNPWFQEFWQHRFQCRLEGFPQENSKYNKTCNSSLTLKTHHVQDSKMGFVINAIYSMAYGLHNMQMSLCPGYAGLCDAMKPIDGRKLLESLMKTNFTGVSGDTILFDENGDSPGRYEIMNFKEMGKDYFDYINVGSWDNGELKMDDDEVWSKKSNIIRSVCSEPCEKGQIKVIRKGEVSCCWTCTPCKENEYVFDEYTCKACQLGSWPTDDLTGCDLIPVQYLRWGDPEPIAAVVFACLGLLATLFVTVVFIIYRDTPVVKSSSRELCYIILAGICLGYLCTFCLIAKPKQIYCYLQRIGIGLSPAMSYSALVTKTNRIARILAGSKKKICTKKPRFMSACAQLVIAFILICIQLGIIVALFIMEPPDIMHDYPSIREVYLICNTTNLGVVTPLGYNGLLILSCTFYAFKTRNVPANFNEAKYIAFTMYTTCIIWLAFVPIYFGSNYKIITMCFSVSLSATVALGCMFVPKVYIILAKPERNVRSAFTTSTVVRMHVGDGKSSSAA

SMILES | EC50 (human mGlu5 receptor [1]) | EC50 (human mGlu5 receptor [2])
N[C@@H](Cn1oc(=O)[nH]c1=O)C(=O)O [quisqualate] | 30.9 nM | 
C[C@@H](NC(=O)c1ccc(C#Cc2cccc(F)c2)cn1)C(C)(C)O [VU0424465, (R)-5-((3-fluorophenyl)ethynyl)-N-(3-hydroxy-3-methylbutan-2-yl) picolinamide] |  | 2.95 nM

From paper PMC5849714, “Direct coupling of detergent purified human mGlu5 receptor to the heterotrimeric G proteins Gq and Gs” (Scientific Reports, 2018)
